Measured values taken from paper PMC9229798, “Antioxidant Activity and Cytotoxicity of Aromatic Oligosulfides” (Molecules, 2022).
Entries after “also recorded” stand apart in the source; their conditions may differ.

Experiments:
[1] = NBT assay, superoxide radical anion formation by xanthine oxidase; assay type: biochemical; details: sample solution 5 mM in DMSO
Description: The superoxide radical anion was generated in the xanthine/xanthine oxidase enzymatic system and reduced nitroblue tetrazolium (NBT) to an intensely blue colored diformazan (λ = 560 nm). There was a decrease in the concentration of diformazan in the presence of a potential antioxidant that absorbs O2^–•. […] Despite the fact that compounds 2 and 6 were structurally similar to the corresponding disulfides 3 and 4, they were not active in this assay.
EDTA, xanthine, bovine serum albumin, nitroblue tetrazolium, and xanthine oxidase (25 MU) were purchased from Sigma Aldrich, Burlington, MA, USA. The superoxide anions were generated enzymatically by the xanthine oxidase system. The reaction mixture consisted of 2.70 mL of 40 mM sodium carbonate buffer containing 0.1 mM EDTA (pH 10.0), 0.06 mL of 10 mM xanthine, 0.03 mL of 0.5% bovine serum albumin, 0.03 mL of 2.5 mM nitroblue tetrazolium, and 0.06 mL of the sample solution in DMSO at the concentration of 5 mM. An amount of 0.12 mL of xanthine oxidase (0.04 units) was added to the mixture at 25 °C, and the absorbance at 560 nm (by formation of blue formazan) was measured by microplate spectrophotometer for 60 s. A control experiment was carried out by replacing the sample solution with the same amount of DMSO.
Inhibition I (%) = [(1 − Ai/A0) × 100%], where Ai is the absorbance in the presence of the testing compound, A0 is the absorbance of the blank solution [78]. All experiments were performed three times.

WI-38 = assay: MTT assay; assay type: cell-based; details: Homo sapiens, 72 h, non-tumourigenic cells
Procedure: (§1) The antiproliferative activity of aromatic oligosulfides 1–6 was determined against human cell lines, including colon carcinoma HCT-116, breast adenocarcinoma MCF-7, lung adenocarcinoma A-549, colorectal carcinoma SW-480, and non-tumourigenic WI-38, using the MTT assay (Table 4). […] However, some selectivity for cancer cells was evident and the IC50 values for non-tumourigenic cells were slightly higher for compounds 1 and 2.
(§2) Cell survival was determined by the MTT [3-(4,5-[…])-2,5-diphenyl tetrazolium bromide] assay by Niks method with small modifications. HCT-116 (colon carcinoma), MCF-7 (breast adenocarcinoma), A-549 (lung adenocarcinoma) and SW-480 (colorectal carcinoma) human cancer cell lines and WI-38 (cell line composed of fibroblasts) were cultured in DMEM (PanEco, Moscow, Russia) with Glutamin (PanEco, Moscow, Russia) and antibiotics (PanEco, Moscow, Russia) in CO2 (5%) at 37 °C. The compounds were dissolved (20 mM) in DMSO and then added to the cell culture medium at the required concentration with a maximum DMSO content of 0.5 v/v%. At these concentrations, DMSO had no effect on cell viability, as was shown in the control experiments. Cells were cultured in 96-well plates (7000 cells/well) and treated with various concentrations (from […]) of the test compounds as well as doxorubicin at 37 °C for 72 h. Cell viability was determined using the MTT assay, which quantified dehydrogenase activity. Then, the cells were incubated at 37 °C for 50 min with a solution of MTT ([…], 5 mg × mL^−1) (Sigma-Aldrich, St. Louis, MO, USA). The supernatant was discarded, and cells were dissolved in DMSO ([…]). The optical density of the solution was measured at 570 nm with use of a multiwall-plate reader (Anthos Zenyth 2000rt, Biochrom, Cambridge, UK), and the percentage of surviving cells was calculated from the absorbance of untreated cells. Each experiment was repeated at least three times, and each concentration was tested in at least three replicates. Data were presented as a graph of the percentage of surviving cells versus the concentration of the test substances. The meanings of 50% inhibition concentration (IC50) with standard deviation were calculated using GraphPad Prism Version 5.03 for Windows (GraphPad Software, San Diego, CA, USA).

[2] = DPPH radical scavenging activity; details: compound solution 0.2 mM in MeOH, DPPH 0.1 mM, 40 min, 20 °C
Description: The redox activity of organosulfur compounds 1–6 can be assessed by the ability to interact with the stable radical 2,2-diphenyl-1-picrylhydrazyl (DPPH). The delocalization of the radical in the aromatic rings of DPPH ensures its high stability. Therefore, this method is widely used to determine the radical scavenging activity of compounds. It is known that there are two main mechanisms by which antioxidant molecules can deactivate free radicals: hydrogen atom transfer (HAT) and single electron transfer (SET). One of them may dominate depending on the conditions, the structure of the antioxidant and the type of analysis, but both will produce identical final products, despite the difference in mechanisms.
The free radical scavenging activity was evaluated using the stable radical 2,2-diphenyl-1-picrylhydrazyl (DPPH), according to the method described by Brand-Williams with a slight modification. Solutions of compounds in MeOH were studied at a concentration of 0.2 mM. The stock DPPH solution contained 0.2 mM of radical in MeOH. An amount of 0.1 mL of the test compound solution was added to 0.1 mL of DPPH solution (0.2 mM) in each cell so that the initial DPPH concentration in cells was 0.1 mM. The microplate was placed in a spectrophotometer and the decrease in the absorbance values of DPPH solution for 40 min at 20 °C was measured at λmax = 517 nm. The results were expressed as scavenging activity, calculated as follows: scavenging activity, % = [(A0 − A1)/A0] × 100, where A0 is the optical density of the control solution DPPH, and A1 is the optical density of the reaction mixture solution.

HCT-116 = assay: MTT assay; assay type: cell-based, human; details: Homo sapiens, HCT-116, 72 h
Procedure: as §1, §2

SW-480 = assay: MTT assay; assay type: cell-based, human; details: Homo sapiens, SW480, 72 h
Procedure: as §1, §2

A-549 = assay: MTT assay; assay type: cell-based, human; details: Homo sapiens, A549, 72 h
Procedure: as §1, §2

MCF-7 = assay: MTT assay; assay type: cell-based, human; details: Homo sapiens, MCF7, 72 h
Procedure: as §1, §2

Structure (SMILES) | NBT, % Inhibition [1] | IC50 (WI-38) | DPPH, % (scavenging activity) [2] | IC50 (HCT-116) | IC50 (SW-480) | IC50 (A-549) | IC50 (MCF-7)
c1ccc(SSSc2ccccc2)cc1 [Compound 1, diphenyl trisulfide] | non active | 52.7 ± 8.5 µM | non active | 18.8 ± 1.4 µM | 23.8 ± 4.5 µM | 43.6 ± 10.1 µM | 37.6 ± 3.7 µM
COc1ccccc1SSc1ccccc1OC [Compound 2, bis(2-methoxyphenyl) disulfide] | not active; also recorded: non active | 31.9 ± 5.2 µM | non active | 24.4 ± 2.3 µM | 22.4 ± 3.8 µM | 29.6 ± 7.5 µM | 30.5 ± 5.2 µM
COc1ccc(SSc2ccc(OC)c(OC)c2)cc1OC [Compound 3, bis(3,4-dimethoxyphenyl) disulfide] | 24.3 ± 0.05% | 32.8 ± 5.4 µM | non active | 18.9 ± 2.1 µM | 21.7 ± 2.4 µM | 15.5 ± 3.4 µM | 37.7 ± 2.7 µM
Oc1ccc(SSc2ccc(O)cc2)cc1 [Compound 4, 4,4′-dihydroxydiphenyl disulfide] | 57.8 ± 0.07% | 28.7 ± 5.3 µM | 13.42 ± 0.02% | 22 ± 1.5 µM | 39.4 ± 7.9 µM | 29.7 ± 6.1 µM | 45.3 ± 3.1 µM
c1ccc(SSc2ccccc2)cc1 [Compound 5, diphenyl disulfide] | non active | 33.7 ± 9.1 µM | non active | 22.1 ± 1.7 µM | 30.6 ± 5.6 µM | 39.2 ± 8.7 µM | 34.8 ± 12.2 µM
CC(C)(C)c1cc(SSc2cc(C(C)(C)C)c(O)c(C(C)(C)C)c2)cc(C(C)(C)C)c1O [Compound 6, bis(3,5-di-tert-butyl-4-hydroxyphenyl) disulfide] | not active; also recorded: non active | 115 ± 75 µM | 81.56 ± 0.07% | > 50 µM | > 50 µM | > 50 µM | > 50 µM
